Experimental data published in PubChem BioAssay AID1159585 (Gregory J. Crowther, 2016).

The compounds below were run against Calcium-dependent protein kinase 1 (Plasmodium falciparum (isolate 3D7)) (UniProt P62344) (assay: PfCDPK1 kinase inhibitors, biochemical, TCAMS library (AID 1159585;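 also: inhibitors leave more ATP so luminescence rises with inhibition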)). Conditions: recombinant PfCDPK1, Kinase-Glo ATP depletion luminescence; cut-off not given, nearly all actives have IC50 up to about 0.98 µM.
Chain of Calcium-dependent protein kinase 1 (Plasmodium falciparum (isolate 3D7)) (P62344 whole entry, looked up): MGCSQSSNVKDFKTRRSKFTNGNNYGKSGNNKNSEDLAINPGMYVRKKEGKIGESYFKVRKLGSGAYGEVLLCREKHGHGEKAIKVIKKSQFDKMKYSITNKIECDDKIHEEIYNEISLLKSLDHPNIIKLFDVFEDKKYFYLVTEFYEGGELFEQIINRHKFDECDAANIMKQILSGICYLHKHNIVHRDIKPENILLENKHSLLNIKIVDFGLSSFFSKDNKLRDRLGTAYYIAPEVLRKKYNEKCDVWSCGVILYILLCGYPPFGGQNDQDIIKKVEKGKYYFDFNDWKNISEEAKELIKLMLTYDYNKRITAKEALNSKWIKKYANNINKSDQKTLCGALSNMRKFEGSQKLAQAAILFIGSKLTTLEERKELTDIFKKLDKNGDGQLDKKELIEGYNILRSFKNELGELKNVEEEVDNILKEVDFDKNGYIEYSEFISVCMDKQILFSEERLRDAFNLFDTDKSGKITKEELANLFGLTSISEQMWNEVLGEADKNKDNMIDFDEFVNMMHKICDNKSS

IC50, active:
CN1CCN(CCCNCc2cccc(Nc3nccc(Nc4ccc(Oc5ccccc5)cc4)n3)c2)CC1 261 nM
COc1ccc(C(=O)NCC(C)(C)c2nc(-c3ccc(Cl)c(O)c3)c(-c3ccncc3)[nH]2)cc1OCCN(C(C)C)C(C)C 387 nM
CN(C)CCN(C)Cc1ccc(-c2ccc3c(Nc4ccc(Cl)cc4F)ccnc3c2)o1 604 nM
NS(=O)(=O)c1cccc(Nc2nccc(-c3c(-c4cccc(NC(=O)c5c(F)cccc5F)c4)nn4ccccc34)n2)c1 20 nM
CC(C)(NCc1ncc[nH]1)c1nc(-c2ccc(Cl)c(O)c2)c(-c2ccncc2)[nH]1 144 nM
CNC(=O)c1ccccc1Nc1nc(Nc2cccc(CS(C)(=O)=O)c2)ncc1C 145 nM
CC(C)(CNC(=O)C1CCN(Cc2ccc(Cl)cc2)CC1)c1nc(-c2ccc(Cl)c(O)c2)c(-c2ccncc2)[nH]1 347 nM
Oc1cccc(Nc2ccnc3cc(-c4nccs4)ccc23)c1 997 nM
CC(C)(CNC(=O)C1CCN(Cc2ccoc2)CC1)c1nc(-c2ccc(Cl)c(O)c2)c(-c2ccncc2)[nH]1 425 nM
CN1CCN(c2ccc(Nc3nccc(-c4cnn5ncccc45)n3)cc2Cl)CC1 232 nM
CN1CCN(CCCNCc2ccc(Nc3nccc(Nc4ccc(Oc5ccccc5)cc4)n3)cc2)CC1 139 nM
COCCOc1ccc(Nc2nccc(-c3c(-c4cccc(NC(=O)c5c(F)cccc5F)c4)nn4ccccc34)n2)cc1Cl 152 nM
CS(=O)(=O)Nc1cccc(-c2cnc3[nH]cc(-c4cccc(CN)c4)c3c2)c1 387 nM
COc1cc2nccc(Nc3ccc(Oc4ccccc4)cc3)c2cc1OC 145 nM
CC(C)(CN)c1nc(-c2ccc(Br)c(O)c2)c(-c2ccncc2)[nH]1 19 nM
COc1ccc(-c2cnn3ccc(Nc4cc(OC)c(OC)c(OC)c4)nc23)cc1OC 157 nM
CCN(CC)CCCOc1ccc(Nc2nccc(-c3c(-c4cccc(NC(=O)c5c(F)cccc5F)c4)nn4ccccc34)n2)cc1F 429 nM
COc1cccc(Nc2nccc(-c3c(-c4cccc(NC(=O)c5c(F)cccc5F)c4)nn4ccccc34)n2)c1 87 nM
CS(=O)(=O)Cc1ccc(Nc2nccc(-c3c(-c4cccc(NC(=O)c5c(F)cccc5F)c4)nn4ncccc34)n2)cc1 11 nM
COc1ccc(-c2cnc3ccc(N4CCCC4)nn23)cc1OC 310 nM
CN1CCN(Cc2ccc(-c3ccc4c(Nc5ccc(Cl)cc5F)ccnc4c3)o2)CC1 406 nM
